Experimental data taken from patent US20110105496A1, “Methods For The Treatment Of Myosin Heavy Chain-Mediated Conditions Using 4,7-Dihydrothieno[2,3-B]Pyridine Compounds” (priority 2005, published 2011).
Where two headings read alike, the source gives them in different places.

Test system: alpha-MyHC
Assay: alpha-MyHC cytoblot process in neonatal rat ventricular myocytes (NRVM)
Format: cell-based
Procedure: In vitro activity of each compound is measured using the alpha-MyHC cytoblot process. Briefly, neonatal rat ventricular myocytes (NRVM) at 120,000 cells/ml in HyQ DME/High modified culture media supplemented with 10% charcoal/dextran treated FBS, 0.1% Nutridoma-SP, 1:100 MEM non-essential amino acids, 1:50 MEM amino acids solution w/o L-Gln, 1 mM sodium pyruvate and 1:100 P/S/G, are plated on gelatin coated sterile 384-well plates (Costar 3712) at 6,000 cells per well. Cells are incubated overnight at 37° C. in 5% CO2 100% humidity. Following overnight growth the media is changed to HyQ DME/High modified culture media supplemented with 0.3% Nutridoma-SP, 1:100 MEM non-essential amino acids, 1:50 MEM amino acids solution w/o L-Gln, 1 mM sodium pyruvate and 1:100 P/S/G. Cells are then dosed with serial dilutions of each compound in DMSO. Each concentration in the dose range is dosed in quadruplicate. Dosing is done in such a way so that the final DMSO concentration was 0.44%. Compound dilutions are 3-fold with the final top concentration of 10 uM. […] Following dosing, the cells are incubated for 72 hours at 37° C. in 5% CO2 100% humidity and then processed with the cytoblot method. Briefly, cell media is aspirated and cell monolayers washed with PBS and fixed with 100% methanol for 30 minutes. Fixed cells are then blocked with PBS, 0.05% Tween-20, 1% BSA, for 1 hour. Following blocking, cells are incubated with primary alpha-MyHC-specific antibody antibody (1:30 dilution of BA-G5 hybridoma conditioned media, ATCC HB276) for 1 hour. Following incubation with the primary antibody, cells are washed with PBS, 0.05% Tween-20, 1% BSA and incubated with secondary antibody (1:1000 dilution, goat-anti-mouse HRP, Southern Biotech, 1031-05) for 1 hour. Following incubation with the secondary antibody, wells are washed and incubated in SuperSignal, West Dura HRP-luminescence substrate for 30 seconds under shaking at room temperature. Luminescence is measured using a Packard Fusion plate reader. […] RLU values are converted into per cent fraction of low control and dose responses are fitted to a sigmoidal 4-parameter equation (XLFit, IDBS) where the EC50 and Max Plateau values were extracted. […] Max Plateau is the […] maximum value determined by the dose response fit.

[1] = Table 1, NRVM, 72 hours, alpha-MyHC cytoblot, mean ± spread
[2] = Table 1, NRVM, 72 hours, maximum of dose response fit, low control = vehicle only
[3] = Table 2 (esters), NRVM, 72 hours, maximum of dose response fit
[4] = Table 2 (esters), NRVM, 72 hours, alpha-MyHC cytoblot

SMILES	EC50 [1] [nM]	Max Plateau [2]	further results
CCC(=O)C1=C(CC)Nc2sc(C(=O)c3ccc(Cl)c(Cl)c3)c(N)c2C1c1ccc2ccccc2c1 (stereo not drawn) [Compound 88]	–	113.45 ± 11.92 per cent fraction of low control	–
CCOC(=O)C1=C(CC)Nc2sc(C(=O)c3cccnc3)c(N)c2C1c1ccncc1F (stereo not drawn) [Compound 174, 3-amino-6-ethyl-4-(3 fluoro-pyridin-4-yl)-2-(pyridine-3-carbonyl)-4,7 dihydro-thieno[2,3-b]pyridine-5-carboxylic acid ethyl ester]	–	–	Max Plateau [3]: 263.57 per cent fraction of low control
COC(=O)C1=C(C(C)C)Nc2sc(C(=O)c3ccc(Cl)c(Cl)c3)c(N)c2C1c1ccccc1 (stereo not drawn) [Compound 116]	–	–	EC50 [4]: 70 nM; Max Plateau [3]: 107.57 per cent fraction of low control
CC(=O)C1=C(C)Nc2sc(C(=O)c3ccc(Cl)c(Cl)c3)c(N)c2C1c1ccc(C)cc1 (stereo not drawn) [Compound 45]	–	108.63 ± 9.14 per cent fraction of low control	–
CCOC(=O)C1=C(CC)Nc2sc(C(=O)c3ccc(Cl)cc3Cl)c(N)c2C1c1ccccc1 (stereo not drawn) [Compound 145]	–	–	EC50 [4]: 123 nM; Max Plateau [3]: 224.48 per cent fraction of low control
CCOC(=O)C1=C(CC)Nc2sc(C(=O)c3ccc(F)c(F)c3)c(N)c2C1c1ccncc1F (stereo not drawn) [Compound 173]	–	–	Max Plateau [3]: 257.43 per cent fraction of low control
CC(=O)C1=C(C)N(C)c2sc(C(=O)c3ccccc3)c(N)c2C1c1ccccc1 (stereo not drawn) [Compound 208, 1-(3-amino-2-benzoyl-6,7 dimethyl-4-phenyl-4,7 dihydro-thieno[2,3-b]pyridin-5-yl)-ethanone]	–	–	Max Plateau (Table 5 (R^4 substituted), NRVM, 72 hours, maximum of dose response fit): 173.33 per cent fraction of low control
CC(=O)C1=C(C)Nc2sc(C(=O)c3ccccc3)c(N)c2C1c1ccc(F)cc1 (stereo not drawn) [Compound 37]	281	227.92 ± 12.46 per cent fraction of low control	–
CCC1=C(C(=O)OC(C)COC)C(c2ccccc2F)c2c(sc(C(=O)c3cccc(C#N)c3)c2N)N1 (stereo not drawn) [Compound 182]	–	–	EC50 [4]: 60.9 nM; Max Plateau [3]: 251.54 ± 25.09 per cent fraction of low control
CCC(=O)C1=C(CC)Nc2sc(C(=O)c3ccc(Cl)c(Cl)c3)c(N)c2C1c1ccccc1 (stereo not drawn) [Compound 36]	6.18	256.56 ± 24.93 per cent fraction of low control	–
CC(=O)C1=C(C)Nc2sc(C(=O)c3ccc(Cl)c(Cl)c3)c(N)c2C1c1ccccc1Cl (stereo not drawn) [Compound 13]	82.5	–	–
CC(=O)C1=C(C)Nc2sc(C(=O)c3ccc(Cl)c(Cl)c3)c(N)c2C1c1ccccc1F (stereo not drawn) [Compound 27]	86.4	220.13 ± 23.10 per cent fraction of low control	–
CC(=O)C1=C(C)Nc2sc(C(=O)c3ccc(Cl)c(Cl)c3)c(N)c2C1c1ccccc1O (stereo not drawn) [Compound 34]	1250	184.69 ± 15.76 per cent fraction of low control	–
CCC(=O)C1=C(CC)Nc2sc(C(=O)c3ccc(Cl)c(Cl)c3)c(N)c2C1c1ccccc1C(F)(F)F (stereo not drawn) [Compound 60]	–	100.00 ± 0.00 per cent fraction of low control	–
CCC1=C(C(=O)OCCOC)C(c2ccccc2F)c2c(sc(C(=O)c3cccc(Cl)c3)c2N)N1 (single isomer, unassigned) [Compound 187]	–	–	Max Plateau [3]: 162.93 ± 10.10 per cent fraction of low control
CC(=O)C1=C(C)Nc2sc(C(=O)c3ccc(Cl)c(Cl)c3)c(N)c2C1c1ccccc1 (stereo not drawn) [Compound 2]	177	207.74 ± 23.00 per cent fraction of low control	–
CCC1=C(C(=O)OC(C)CC)C(c2ccccc2F)c2c(sc(C(=O)c3cccc(C#N)c3)c2N)N1 (single isomer, unassigned) [Compound 166]	–	–	EC50 [4]: 33.3 nM; Max Plateau [3]: 219.07 per cent fraction of low control
CC1=C(C(=O)OCCN2CCOCC2)C(c2ccccc2)c2c(sc(C(=O)c3ccc(Cl)c(Cl)c3)c2N)N1 (stereo not drawn) [Compound 126]	–	–	EC50 [4]: 210 nM; Max Plateau [3]: 193.06 ± 11.02 per cent fraction of low control
CCC(=O)C1=C(CC)Nc2sc(C(=O)c3cc(C(C)(C)C)c(O)c(C(C)(C)C)c3)c(N)c2C1c1ccccc1 (stereo not drawn) [Compound 90]	–	300.00 ± 0.00 per cent fraction of low control	–
CCC(=O)C1=C(CC)Nc2sc(C(=O)c3ccccc3F)c(N)c2C1c1ccccc1 (stereo not drawn) [Compound 67]	12.1	256.12 ± 53.66 per cent fraction of low control	–
CCC(=O)C1=C(CC)Nc2sc(C(=O)c3cccc(Cl)c3)c(N)c2C1c1ccccc1 (stereo not drawn) [Compound 66]	4.94	306.19 ± 54.21 per cent fraction of low control	–
CCC(=O)C1=C(CC)Nc2sc(C(=O)c3cc(Cl)ccc3Cl)c(N)c2C1c1ccccc1 (stereo not drawn) [Compound 64]	10.2	281.39 ± 54.54 per cent fraction of low control	–
COc1ccccc1C1C(C(C)=O)=C(C)Nc2sc(C(=O)c3ccccc3)c(N)c21 (stereo not drawn) [Compound 18]	876	215.25 ± 44.08 per cent fraction of low control	–
COC(=O)C1=C(C(C)C)Nc2sc(C(=O)c3cccc(C#N)c3)c(N)c2C1c1ccccc1F (racemic) [Compound 177]	–	–	EC50 [4]: 796 nM; Max Plateau [3]: 162.75 per cent fraction of low control
CC1=C(C(=O)OCCN)C(c2ccccc2)c2c(sc(C(=O)c3ccc(Cl)c(Cl)c3)c2N)N1 (racemic) [compound 213]	–	–	EC50: 326 nM; Max Plateau: 208.56 ± 23.45
CCC(=O)C1=C(CC)Nc2sc(C(=O)c3ccc(Cl)c(Cl)c3)c(N)c2C1c1c(F)cccc1F (stereo not drawn) [Compound 63]	20.8	230.07 ± 45.59 per cent fraction of low control	–
COc1ccc(C2C(C(C)=O)=C(C)Nc3sc(C(=O)c4ccccc4)c(N)c32)cc1 (stereo not drawn) [Compound 14]	3030	182.73 ± 26.95 per cent fraction of low control	–
CCC1=C(C(=O)OC(C)COC)C(c2ccccc2F)c2c(sc(C(=O)c3cccc(Cl)c3)c2N)N1 (stereo not drawn) [Compound 181]	–	–	EC50 [4]: 21 nM; Max Plateau [3]: 240.80 ± 29.53 per cent fraction of low control

The next lines start with results.

EC50 [1] [nM]	SMILES	Max Plateau [2]	further results
217	CCCC(=O)C1=C(CCC)Nc2sc(C(=O)c3ccc(Cl)c(Cl)c3)c(N)c2C1c1ccccc1F (stereo not drawn) [Compound 87]	187.66 ± 12.24 per cent fraction of low control	–
233	CCC(=O)C1=C(CC)Nc2sc(C(=O)c3ccccc3)c(N)c2C1c1cccnc1 (stereo not drawn) [Compound 68]	175.88 ± 14.54 per cent fraction of low control	–
51.7	CCC(=O)C1=C(CC)Nc2sc(C(=O)c3ccc(Cl)cc3Cl)c(N)c2C1c1ccccc1 (stereo not drawn) [Compound 70]	191.97 ± 13.09 per cent fraction of low control	–
4.99	CCC(=O)C1=C(CC)Nc2sc(C(=O)c3ccc(Cl)c(Cl)c3)c(N)c2C1c1ccnc(F)c1 (stereo not drawn) [Compound 98]	255.02 ± 32.01 per cent fraction of low control	–
350	CCC(=O)C1=C(CC)Nc2sc(C(=O)c3ccc(Cl)c(Cl)c3)c(N)c2C1c1ccc(OC)cc1F (stereo not drawn) [Compound 81]	184.00 ± 15.51 per cent fraction of low control	–
118	CCCC(=O)C1=C(CCC)Nc2sc(C(=O)c3cc(Cl)ccc3Cl)c(N)c2C1c1ccccc1 (stereo not drawn) [Compound 94]	153.83 ± 13.14 per cent fraction of low control	–
17.1	CCC(=O)C1=C(CC)Nc2sc(C(=O)c3cccc([N+](=O)[O-])c3)c(N)c2C1c1ccccc1 (stereo not drawn) [Compound 96]	254.87 ± 72.67 per cent fraction of low control	–
10.5	CCC(=O)C1=C(CC)Nc2sc(C(=O)c3cccnc3)c(N)c2C1c1ccnc(F)c1 (stereo not drawn) [Compound 103]	254.65 ± 31.26 per cent fraction of low control	–
